Data set [1] concerns human acute lymphoblastic leukemia RS4;11 cells. Description: Cell growth inhibition test against hematopoietic tumor cell lines (XTT), RS4;11. In kind it is cell-based. The following applies: 72 hours culture with compound, read-out: growth inhibitory activity, GI50 value. The source says: (§1) As hematopoietic tumor cell lines, human acute lymphoblastic leukemia RS4;11 cells (ATCC No. CRL-1873), human chronic myeloid leukemia K-562 cells (ATCC No. CCL-243), and human multiple myeloma NCI-H929 cells (ATCC No. CRL-9068) were used. For the culture of the cells, RPMI 1640 Medium (Invitrogen, catalog No. 11875-093) containing 10% fetal bovine serum (Invitrogen, catalog No. 10099-141), 10 mmol/L 4-(2-hydroxyethyl)-1-piperazinethanesulfonic acid (HEPES) buffer (ICN Biomedicals, catalog No. 1688449), 1 mmol/L sodium pyruvate (Invitrogen, catalog No. 11360-070), 4.5 g/L glucose (Sigma-Aldrich, catalog No. G8769), 100 units/mL penicillin (Invitrogen, catalog No. 15140-122) and 100 μg/mL streptomycin (Invitrogen, catalog No. 15140-122) was used. The cells were cultured at 37° C. in a 5% carbon dioxide atmosphere.
(§2) RS4;11 cells (20000 cells/well), K-562 cells (1000 cells/well), or NCI-H929 cells (15000 cells/well) were seeded in each well of 96-well plates (Nunc, catalog No. 167008), and cultured overnight. Test compounds diluted stepwise were added, and the cells were further cultured for 72 hours (final volume: 100 μL/well). Fifty μL XTT labeling mixture of Cell Proliferation Kit II (XTT) (Roche Diagnostics, catalog No. 1465015) was added to each well, and the plates were incubated at 37° C. After 4 hours, absorbance at 490 nm (reference wavelength: 655 nm) was measured with a plate reader (Molecular Device, SpectraMax 340PC^384). Growth ratios of the cells in the wells treated with the test compound was calculated based on the growth ratio of the cells in the control well treated with solvent (dimethyl sulfoxide (DMSO)) for 72 hours, which was defined as 100%.
A general note: Formazan colour is commonly taken as a measure of viable cells.

The test system of data set [2] is human chronic myeloid leukemia K-562 cells. Description: Cell growth inhibition test against hematopoietic tumor cell lines (XTT), K-562. In kind it is cell-based. The following applies: K562, 72 hours culture with compound, read-out: growth inhibitory activity, GI50 value.
Description: as §1, §2

Data set [3] deals with human multiple myeloma NCI-H929 cells. Description: Cell growth inhibition test against hematopoietic tumor cell lines (XTT), NCI-H929. It counts as cell-based. The following applies: 72 hours culture with compound, read-out: growth inhibitory activity, GI50 value.
Description: as §1, §2

Data set [4] concerns human acute myeloid leukemia MV-4-11 cells. Description: Cell growth inhibition test on acute myeloid leukemia cells (XTT), MV-4-11. It counts as cell-based. To be noted: MV4-11, same manner as Test Example 1, read-out: growth inhibitory activity, GI50 value. On the procedure:
as §2
(§3) As cancer cell lines, human acute myeloid leukemia MV-4-11 cells (ATCC No. CRL-9591) and human non-Hodgkin's lymphoma SR cells (ATCC No. CRL-2262) were used. The cells were cultured at 37° C. in a 5% carbon dioxide atmosphere by using the mediums mentioned below, respectively.
(§4) In the same manner as that of Test Example 1, the cells were seeded (8000 to 16000 cells/well, respectively) in each well of 96-well plates (Nunc, catalog No. 167008), and growth ratios of the cells treated with test compounds were calculated. Measurement of absorbance was performed at 3 to 4 hours after the addition of the XTT labeling mixture.

The test system of data set [5] is human non-Hodgkin's lymphoma SR cells. Description: Cell growth inhibition test on non-Hodgkin's lymphoma cells (XTT), SR. In kind it is cell-based. To be noted: same manner as Test Example 1, read-out: growth inhibitory activity, GI50 value. Here is the method: as §2, §3, §4
In data set [6] the target is T1, recombinant human Eg5 motor domain protein (Homo sapiens, UniProt P52732).
T1 construct: A plasmid expressing the motor domain of human Eg5 was constructed; made in house; host or cells: Escherichia coli BL21 (DE3)
T1 sequence (P52732 18-359 limits assumed): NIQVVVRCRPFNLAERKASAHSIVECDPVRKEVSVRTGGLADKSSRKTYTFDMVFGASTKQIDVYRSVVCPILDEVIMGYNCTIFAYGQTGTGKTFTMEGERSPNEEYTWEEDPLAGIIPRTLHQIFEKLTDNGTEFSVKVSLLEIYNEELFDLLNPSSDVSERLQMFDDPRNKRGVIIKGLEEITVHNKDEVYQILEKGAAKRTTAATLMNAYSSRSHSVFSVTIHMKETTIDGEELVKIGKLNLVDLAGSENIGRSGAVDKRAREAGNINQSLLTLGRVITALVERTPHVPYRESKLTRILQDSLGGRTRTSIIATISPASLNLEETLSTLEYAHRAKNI
Description: Eg5 enzyme inhibition test (ATPase activity). It counts as biochemical. The following applies: for inhibition of the ATPase activity of Eg5 (in words): 30° C., 30 minutes, absorbance at 360 nm; for Eg5 inhibitory activity compared with the corresponding racemic mixture (in words): versus Compounds 3, 4, 6, 7, 20, 14, 9, 8, the respectively corresponding racemic mixtures. Here is the method:
A recombinant human Eg5 motor domain protein was prepared by referring to the literature [Biochemistry, Vol. 35, p. […] A plasmid expressing the motor domain of human Eg5 was constructed, and transformed into Eseherichia coli BL21 (DE3). The transformant was cultured at 25° C., and when the OD600 reached 0.74, isopropyl-β-D-thiogalactoside was added at a final concentration of 0.5 mmol/L. The transformant was further cultured for 4 hours, and then the culture medium was centrifuged to collect the cells. The cells were suspended in a buffer and ultrasonicated, and then the sonicated solution was centrifuged to recover the supernatant. The supernatant was purified by cation exchange column chromatography to obtain a partially purified sample. Furthermore, the partially purified sample was purified by gel filtration column chromatography to obtain a finally purified sample.
Measurement of the ATPase activity of Eg5 was carried out by referring to the literatures [EMBO Journal, Vol. 13, p. […] Solution A was dispensed into each well of a 96-well plate as 45 μL portions. Solution B was used to serially dilute a test compound. The diluted test compound solutions in a volume of 30 μL were mixed with Solution A added beforehand in each well of the 96-well plate to start the enzymatic reaction. The enzymatic reaction was performed at 30° C. for 30 minutes. […] The relative activity was calculated to calculate IC50 value.

The source of these data is patent US20080262049A1, “Therapeutic Agent for Hematopoietic Tumor” (KYOWA HAKKO KOGYO CO., LTD., priority 2005, published 2008).

Some results are limits rather than exact numbers.

Consider `CC(=O)N1N=C(N2CCCC2=O)SC1(CCNS(C)(=O)=O)c1ccccc1` (stereo not drawn) [Compound g, N-{2-[3-Acetyl-5-(2-oxopyrrolidin-1-yl)-2-phenyl-2,3-dihydro-1,3,4-thiadiazol-2-yl]ethyl}methanesulfonamide], for which the melting point (usually the temperature of the solid-liquid transition) lay in the range of 137 to 140 °C.
For the molecule `CCC(=O)N1N=C(NC(=O)C(C)(C)C)SC1(CCNS(C)(=O)=O)c1ccccc1` (single isomer, unassigned; (-)) [Compound b, (−)-N-[5-(2-Methanesulfonylaminoethyl)-5-phenyl-4-propionyl-4,5-dihydro-1,3,4-thiadiazol-2-yl]-2,2-dimethylpropanamide], the GI50 in data set [1], in data set [2], in data set [3], in data set [4] and in data set [5] was below 10 µM throughout. Also, the “inhibition of the ATPase activity of Eg5 (in words)” value (from here on “inhibition”) in data set [6] was “inhibited the ATPase activity of Eg5 in a concentration-dependent manner”. In data set [6], the “Eg5 inhibitory activity compared with the corresponding racemic mixture (in words)” value is “stronger inhibitory activities”.
Turning to `CCNCCS(=O)(=O)NCC1(c2ccccc2)SC(NC(=O)C(C)(C)C)=NN1C(=O)C(C)(C)C` (single isomer, unassigned; (-)) [Compound l, (−)-N-[4-(2,2-Dimethylpropionyl)-5-(2-ethylaminoethanesulfonylaminomethyl)-5-phenyl-4,5-dihydro-1,3,4-thiadiazol-2-yl]-2,2-dimethylpropanamide], the GI50 in data set [1], in data set [2], in data set [3], in data set [4] and in data set [5] was below 10 µM each time. For the same molecule, the “inhibition” value in data set [6] is listed as “inhibited the ATPase activity of Eg5 in a concentration-dependent manner”. In data set [6], the “Eg5 inhibitory activity compared with the corresponding racemic mixture (in words)” value was “stronger inhibitory activities”.
For `CCNCCS(=O)(=O)NCCC1(c2ccccc2)SC(NC(=O)C(C)(C)C)=NN1C(=O)C(C)(C)C` (racemic) [Compound 14, N-{4-(2,2-Dimethylpropionyl)-5-[2-(2-ethylaminoethanesulfonylamino)-ethyl]-5-phenyl-4,5-dihydro-1,3,4-thiadiazol-2-yl}-2,2-dimethylpropanamide], the “inhibition” value in data set [6] is “inhibited the ATPase activity of Eg5 in a concentration-dependent manner”.
Consider `CCNCCS(=O)(=O)NCCC1(c2ccccc2)SC(NC(=O)C(C)(C)C)=NN1C(=O)C(C)(C)C` (single isomer, unassigned) [Compound i, N-{4-(2,2-Dimethylpropionyl)-5-[2-(2-ethylaminoethanesulfonylamino)-ethyl]-5-phenyl-4,5-dihydro-1,3,4-thiadiazol-2-yl}-2,2-dimethylpropanamide], for which the GI50 in data set [1], in data set [2], in data set [3], in data set [4] and in data set [5] was below 10 µM throughout. Moreover, the “inhibition” value in data set [6] is “inhibited the ATPase activity of Eg5 in a concentration-dependent manner”. Moreover, the “Eg5 inhibitory activity compared with the corresponding racemic mixture (in words)” value in data set [6] is given as “stronger inhibitory activities”.
Take `CC(C)(C)C(=O)NC1=NN(C(=O)C(C)(C)C)C(CCNS(C)(=O)=O)(c2ccccc2)S1` (single isomer, unassigned; (-)) [Compound a, (−)-N-[4-(2,2-Dimethylpropionyl)-5-(2-methanesulfonylaminoethyl)-5-phenyl-4,5-dihydro-1,3,4-thiadiazol-2-yl]-2,2-dimethylpropanamide]: the GI50 in data set [1], in data set [2], in data set [3], in data set [4] and in data set [5] was below 10 µM each time. Besides, the “inhibition” value in data set [6] is “inhibited the ATPase activity of Eg5 in a concentration-dependent manner”. For the same molecule, in data set [6], the “Eg5 inhibitory activity compared with the corresponding racemic mixture (in words)” value was “stronger inhibitory activities”.
Consider `CC(C)C(=O)N1N=C(NC(=O)C(C)(C)C)SC1(CCNS(C)(=O)=O)c1ccccc1` (single isomer, unassigned; (-)) [Compound d, (−)-N-[4-Isobutyryl-5-(2-methanesulfonylaminoethyl)-5-phenyl-4,5-dihydro-1,3,4-thiadiazol-2-yl]-2,2-dimethylpropanamide], for which the GI50 in data set [1], in data set [2], in data set [3], in data set [4] and in data set [5] was below 10 µM throughout. Further, the “inhibition” value in data set [6] is on record as “inhibited the ATPase activity of Eg5 in a concentration-dependent manner”. In addition, the “Eg5 inhibitory activity compared with the corresponding racemic mixture (in words)” value in data set [6] was “stronger inhibitory activities”.
In the case of `CC(C)(C)C(=O)NC1=NN(C(=O)C(C)(C)C)C(CCCC(=O)NCCO)(c2ccccc2)S1` (single isomer, unassigned) [Compound o, 4-[3-(2,2-Dimethylpropionyl)-5-(2,2-dimethylpropionylamino)-2-phenyl-2,3-dihydro-1,3,4-thiadiazol-2-yl]-N-(2-hydroxyethyl)butanamide], the GI50 in data set [1], in data set [2], in data set [3], in data set [4] and in data set [5] was below 10 µM each time. In addition, in data set [6], the “inhibition” value was “inhibited the ATPase activity of Eg5 in a concentration-dependent manner”. The “Eg5 inhibitory activity compared with the corresponding racemic mixture (in words)” value in data set [6] was “stronger inhibitory activities”.
Take `CC(=O)N1N=C(N2CCCCC2=O)SC1(CCNS(C)(=O)=O)c1ccccc1` (racemic) [Compound 20, N-{2-[3-Acetyl-5-(2-oxopiperidino)-2-phenyl-2,3-dihydro-1,3,4-thiadiazol-2-yl]ethyl}methanesulfonamide]: the “inhibition” value in data set [6] is on record as “inhibited the ATPase activity of Eg5 in a concentration-dependent manner”.
Take `CC(C)(C)C(=O)NC1=NN(C(=O)C(C)(C)C)C(CN)(c2ccccc2)S1` (stereo not drawn) [Compound j, N-[5-Aminomethyl-4-(2,2-dimethylpropionyl)-5-phenyl-4,5-dihydro-1,3,4-thiadiazol-2-yl]-2,2-dimethylpropanamide]: the GI50 in data set [1], in data set [2] and in data set [3] was below 10 µM each time.
